Experimental data taken from patent publication US20250032488A1, “METHODS OF TREATMENT USING LOU064” (NOVARTIS AG, priority 2021, published 2025).

Columns and labels:
[1] = tested on: BALB/c mice; assay: Passive cutaneous anaphylaxis (PCA) in mice: skin edema; assay type: in vivo; conditions: doses as low as 3 mg/kg, two oral administrations
Procedure: LOU064 was tested in a murine PCA model. The model used BALB/c mice aged 8-10 weeks of age. For passive sensitization with hapten-specific IgE, mice under isoflurane anesthesia were given an intradermal injection of 20 μl anti-DNP IgE in saline into the right ear and 20 μl of saline into the left ear. For FccR-specific PCA, mice were given a low dose of 3 ng anti-DNP IgE. For maximal PCA mice were given a high dose of 25 ng anti-DNP IgE. LOU064 was administered p.o. in a volume of 5 ml/kg body weight. A first dose was administered 4 hours after sensitization on the evening before challenge. The next morning, 2 hours prior to hapten challenge, mice were given a second oral dose of LOU064.
Mice were challenged with hapten 2 hours after the second dose by placing them into a heated chamber. Animals were then injected i.v. with 100 μg of the hapten DNP-HSA (dinitrophenyl-human serum albumin) in 200 μl of 2% Evans blue diluted in PBS. The mice were then returned to their cage for exactly 30 minutes. Thirty minutes later, animals were then anesthetized with isoflurane and bled retro-orbitally using EDTA coated blood collection tubes for analysis of compound exposure. […] Twenty-four hours later 80 μl of formalin solution were transferred to a clear flat bottom 96 well plate and the optical absorption was read at 620 nm. […] Statistical significance was determined by ANOVA. […]

[2] = tested on: C57BI6 mice; assay: Reverse passive Arthus (RPA) reaction in mouse skin: skin swelling; assay type: in vivo; conditions: for Inhibition of the Arthus reaction (skin swelling): dosed 2 hours prior to induction, read at 3 hours
Procedure: The effect of a single dose of LOU064 was tested in the acute mouse reverse passive Arthus (RPA) model to assess its effect on a dermal anaphylaxis reaction triggered by IgG immune complexes and mediated by FcGRIIl on mast cell.
Female C57BI6 mice (Charles River, France), 8-10 weeks of age, were used. The back of the mice was shaved 24 hours prior to the skin injections. This allowed any potential irritation of the skin to resolve. The Arthus reaction was triggered two hours after compound dosing in the dose-response study or at the timepoints noted in the time-course study. To elicit the Arthus reaction, 50 μl of PBS (control site) or polyclonal rabbit anti-ovalbumin IgG at a concentration of 30 μg in PBS (C6534, Sigma) was injected i.d. into the dorsal skin. The intradermal injection was followed immediately by an i.v. injection of 200 μl ovalbumin (20 mg/kg) in saline (05450 Fluka). Three hours after the injection of the ovalbumin the mice were killed, bled for monitoring of the compound concentration and the spleens removed for BTK occupancy measurement. The thickness of the injected control and anti-ovalbumin IgG skin sites was measured using a digital caliper, and the thickness of the anti-ovalbumin IgG injected sites minus the saline control sites were then calculated for the mice in all treatment groups.

[3] = tested on: LAD2 cells; assay: FcER-induced mast cell degranulation in LAD2 cells; assay type: cell-based; conditions: Homo sapiens, n=3, read-out: IC50, IgE/FcER-induced mast cell degranulation (β-tryptase)
Source text: Rationale and method: The human mastocytosis cell line LAD2 expresses FcERI and upon crosslinking of the receptor the cells degranulate and release inflammatory mediators like β-tryptase and hexosaminidase (Wernersson et al. 2014, Immunology; 14 (7): 478-94). The assay involves 4-hydroxy-3-iodo-5-nitrophenylacetic acid (NIP) haptenized bovine serum albumin (BSA) and the NIP-specific chimeric IgE antibody JW8 (Neuberger, M.S. et al. (1985), Nature 314 (6008), pp 268-70. doi: 10.1038/314268a0). The LAD2 cells were sensitized with JW8 IgE antibody and then incubated with serial compound dilutions for 30 minutes at 37° C. Then degranulation was triggered by adding haptenized NIP-BSA to crosslink the FcER. After one hour, supernatants were collected and analyzed for B-tryptase levels.

[4] = target: T1, BTK (Mus musculus, UniProt P35991); assay: BTK occupancy in spleen, PCA study; assay type: in vivo, mice; conditions: 2.5 hours after second oral dose, read-out: BTK occupancy in spleen relative to vehicle controls
T1 construct: each spleen was crushed and lysed in a GentleMACS; from tissue; host or cells: mouse spleen (BALB/c, C57Bl6) and lung (C57Bl6)
T1 sequence (P35991 whole entry): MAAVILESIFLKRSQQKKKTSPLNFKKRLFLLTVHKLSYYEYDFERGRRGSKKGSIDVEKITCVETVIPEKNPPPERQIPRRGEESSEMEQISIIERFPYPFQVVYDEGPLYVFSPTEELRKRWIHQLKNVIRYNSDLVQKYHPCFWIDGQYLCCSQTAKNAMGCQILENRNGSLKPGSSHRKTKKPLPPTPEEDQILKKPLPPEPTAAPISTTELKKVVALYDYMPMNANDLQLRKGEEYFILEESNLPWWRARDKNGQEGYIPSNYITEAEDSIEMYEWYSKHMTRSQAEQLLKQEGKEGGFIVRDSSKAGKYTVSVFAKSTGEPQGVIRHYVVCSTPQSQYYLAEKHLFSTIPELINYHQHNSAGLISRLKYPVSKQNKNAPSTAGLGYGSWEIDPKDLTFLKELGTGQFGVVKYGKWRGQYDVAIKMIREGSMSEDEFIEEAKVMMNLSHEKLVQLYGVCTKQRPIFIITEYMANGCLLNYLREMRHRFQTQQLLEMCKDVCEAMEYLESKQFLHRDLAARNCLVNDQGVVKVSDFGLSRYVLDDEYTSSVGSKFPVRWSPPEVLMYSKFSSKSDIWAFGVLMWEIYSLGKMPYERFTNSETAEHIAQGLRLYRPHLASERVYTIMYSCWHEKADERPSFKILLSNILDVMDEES
Procedure: The levels of BTK occupancy after dosing of LOU064 was determined in separate ELISAs for total BTK protein and for bound BTK (=free BTK).
Covalent binding of compounds to BTK was determined with immunoassays for free BTK (i.e., not covalently occupied by compound) and total BTK protein. For free BTK measurements, samples were incubated with a biotinylated covalent BTK probe (Pulz R et al, ACS Med. Chem. Lett. 2019, 10, 1467-1472) then samples were added to streptavidin ELISA plates to allow binding of probe-bound BTK. The binding of the probe to BTK is mutually exclusive with compound binding to BTK. Plate-bound BTK was detected with an anti-BTK antibody (D3H5, Cell Signaling Technology). For total BTK measurements, an ELISA plate was coated with D3H5 anti-BTK to capture total BTK. An anti-BTK antibody (no. 53, BD Biosciences) directed to a different epitope was then used to detect captured BTK. The respective free BTK levels for each sample were normalized to the total BTK level in the same sample, and these ratios were expressed as percentage of the vehicle control samples. […]
The relative BTK occupancy was calculated as the ratio of free BTK (signal of bound BTK) to total BTK for each sample: Ri=free BTK/total BTK. The individual Ri values were then normalized to the vehicle group and expressed as percent occupancy: (average of Ri vehicle group-Ri)/(average of Ri vehicle group)*100%

[5] = Co-administration with oral contraceptives; assay type: in vivo
Source text: Therefore, in a preferred embodiment, LOU064 is co-administered with oral contraceptives.

C=CC(=O)N(C)CCOc1c(N)ncnc1-c1cc(F)cc(NC(=O)c2ccc(C3CC3)cc2F)c1C [LOU064, N-(3-(6-amino-5-(2-(N-methylacrylamido)ethoxy)pyrimidin-4-yl)-5-fluoro-2-methylphenyl)-4-cyclopropyl-2-fluorobenzamide]
Inhibition of the anaphylactic response (PCA) [1]: near complete inhibition | Inhibition of skin swelling (time-course study) ([2]; 30 mg/kg p.o., Arthus reaction elicited 2 hours post dosing): 65.7% | Inhibition of the Arthus reaction (skin swelling) ([2]; 30 mg/kg single p.o.): 73% | Inhibition of the Arthus reaction (skin swelling) ([2]; 100 mg/kg single p.o.): 61.2% | Timepoint at which pharmacologic effect in the skin returned to vehicle levels ([2]; single dose 30 mg/kg p.o.): ≤ 45 hours | IC50 [3]: 7 nM | receptor occupancy at 3 mg/kg [4]: 89.1% | Impact on exposure and efficacy of oral contraceptives (ethinylestradiol or levonorgestrel) [5]: without a major impact
